{
  "source": "patent US20230047816A1",
  "about": "(priority 2018, published 2023)",
  "note": "pIC50: −log10 of the molar value.",
  "data": [
    {"target": "Recombinant full length human PFKFB3 (Homo sapiens, UniProt Q16875)", "sequence (Q16875 whole entry)": "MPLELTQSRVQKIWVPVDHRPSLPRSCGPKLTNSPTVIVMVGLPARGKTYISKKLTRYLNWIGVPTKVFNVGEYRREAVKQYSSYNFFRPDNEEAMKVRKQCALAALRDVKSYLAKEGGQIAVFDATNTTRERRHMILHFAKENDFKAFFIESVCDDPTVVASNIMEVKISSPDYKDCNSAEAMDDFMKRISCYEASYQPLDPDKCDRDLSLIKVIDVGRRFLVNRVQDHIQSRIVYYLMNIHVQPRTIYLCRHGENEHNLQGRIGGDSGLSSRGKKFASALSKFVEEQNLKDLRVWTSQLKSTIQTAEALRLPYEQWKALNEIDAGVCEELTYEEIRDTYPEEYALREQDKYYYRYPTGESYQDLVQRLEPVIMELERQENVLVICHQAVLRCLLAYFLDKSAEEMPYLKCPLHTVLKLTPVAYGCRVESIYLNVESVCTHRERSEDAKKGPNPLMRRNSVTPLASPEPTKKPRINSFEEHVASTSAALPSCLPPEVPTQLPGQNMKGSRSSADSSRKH", "assay": "PFKFB3 kinase activity assay (ADP production, ADP-Glo)", "values": [
      {"compound": "O=C(O)c1ccc2c(c1)C(=O)N(c1cc(-c3ccc(F)c(F)c3F)ccc1C(=O)O)C2=O", "note": "[Compound 139, 2-(4-Carboxy-2′,3′,4′-trifluoro[1,1′-biphenyl]-3-yl)-1,3-dioxo-2,3-dihydro-1H-isoindole-5-carboxylic Acid]", "pIC50": "> 6.30"},
      {"compound": "O=C(O)c1ccc2c(c1)C(=O)N(c1cc(-c3cc(F)c(F)cc3F)ccc1C(=O)O)C2=O", "note": "[Compound 140, 2-(4-Carboxy-2′,4′,5′-trifluoro[1,1′-biphenyl]-3-yl)-1,3-dioxo-2,3-dihydro-1H-isoindole-5-carboxylic Acid]", "pIC50": "> 6.30"},
      {"compound": "Cc1ccc(-c2ccc(C(=O)O)c(N3C(=O)c4ccc(C(=O)O)cc4C3=O)c2)cc1", "note": "[Compound 141, 2-(4-Carboxy-4′-methyl[1,1′-biphenyl]-3-yl)-1,3-dioxo-2,3-dihydro-1H-isoindole-5-carboxylic acid]", "pIC50": "> 6.30"},
      {"compound": "O=C(O)c1ccc2c(c1)C(=O)N(c1cc(-c3ccc(Cl)cc3Cl)ccc1C(=O)O)C2=O", "note": "[Compound 142, 2-(4-Carboxy-2′,4′-dichloro[1,1′-biphenyl]-3-yl)-1,3-dioxo-2,3-dihydro-1H-isoindole-5-carboxylic acid]", "pIC50": "> 6.30"},
      {"compound": "COc1ccc(-c2ccc(C(=O)O)c(N3C(=O)c4ccc(C(=O)O)cc4C3=O)c2)cc1F", "note": "[Compound 144, 2-(4-Carboxy-3′-fluoro-4′-methoxy[1,1′-biphenyl]-3-yl)-1,3-dioxo-2,3-dihydro-1H-isoindole-5-carboxylic acid]", "pIC50": "> 6.30"},
      {"compound": "O=C(O)c1ccc(C(=O)O)c(C(=O)Nc2cc(-c3ccc(F)cc3)ccc2C(=O)O)c1", "note": "[Example 1, 2-({4-carboxy-4′-fluoro-[1,1′-biphenyl]-3-yl}carbamoyl)benzene-1,4-dicarboxylic acid]", "pIC50": "5.70 to 6.30"},
      {"compound": "COc1cc(N2C(=O)c3ccc(C(=O)O)cc3C2=O)ccc1-c1ccccc1", "note": "[Example 1]", "pIC50": "4.70 to 5.30"},
      {"compound": "O=C(O)c1ccc2c(c1)C(=O)N(c1ccc(-c3ccccc3)cc1-c1nnn[nH]1)C2=O", "note": "[Example 2, 1,3-Dioxo-2-[3-(1H-tetrazol-5-yl)-1,1′-biphenyl-4-yl]-2,3-dihydro-1H-isoindole-5-carboxylic Acid]", "pIC50": "> 6.30"},
      {"compound": "O=C(O)c1ccc2c(c1)C(=O)N(c1cc(-c3ccccc3)ccc1O)C2=O", "note": "[Example 3, 2-(4-Hydroxy[1,1′-biphenyl]-3-yl)-1,3-dioxo-2,3-dihydro-1H-isoindole-5-carboxylic Acid]", "pIC50": "5.70 to 6.30"},
      {"compound": "Nc1cc(C(=O)O)ccc1C(=O)Nc1cc(-c2ccccc2)ccc1C(=O)O", "note": "[Example 4, 3-(2-amino-4-carboxybenzamido)-[1,1′-biphenyl]-4-carboxylic acid]", "pIC50": "> 4.70"},
      {"compound": "O=C(O)c1ccc2c(c1)C(=O)N(c1ccc(-c3ccccc3)cc1CO)C2=O", "note": "[Example 4]", "pIC50": "5.30 to 5.70"},
      {"compound": "O=C(O)c1ccc(C(=O)Nc2cc(-c3ccccc3)ccc2C(=O)O)c(C(=O)O)c1", "note": "[Example 5, 4-({4-carboxy-[1,1′-biphenyl]-3-yl}carbamoyl)benzene-1,3-dicarboxylic acid]", "pIC50": "5.70 to 6.30"},
      {"compound": "O=C(O)c1cc(-c2cnn[nH]2)ccc1CNc1cc(-c2ccc(F)c(F)c2)ccc1C(=O)O", "note": "[Example 6, 3-({[2-carboxy-4-(2H-1,2,3-triazol-4-yl)phenyl]methyl}amino)-3′,4′-difluoro-[1,1′-biphenyl]-4-carboxylic acid]", "pIC50": "> 6.30"},
      {"compound": "COc1ccc(-c2c(C)sc(N3C(=O)c4ccc(C(=O)O)cc4C3=O)c2C#N)cc1", "note": "[Example 6]", "pIC50": "> 6.30"},
      {"compound": "O=C(O)c1ccc(-c2cnn[nH]2)cc1CNc1cc(-c2ccc(F)c(F)c2)ccc1C(=O)O", "note": "[Example 7, 3-({[2-carboxy-5-(2H-1,2,3-triazol-4-yl)phenyl]methyl}amino)-3′,4′-difluoro-[1,1′-biphenyl]-4-carboxylic acid]", "pIC50": "4.70 to 5.30"},
      {"compound": "COc1ccc(-c2c(C)sc(NC(=O)c3ccc(-c4c[nH]nn4)cc3C(N)=O)c2C#N)cc1", "note": "[Example 8, N1-[3-cyano-4-(4-methoxyphenyl)-5-methylthiophen-2-yl]-4-(2H-1,2,3-triazol-4-yl)benzene-1,2-dicarboxamide]", "pIC50": "4.70 to 5.30"},
      {"compound": "COC(=O)c1cc(-c2c[nH]nn2)ccc1C(=O)Nc1sc(C)c(-c2ccc(OC)cc2)c1C#N", "note": "[Example 9, methyl 2-{[3-cyano-4-(4-methoxyphenyl)-5-methylthiophen-2-yl]carbamoyl}-5-(2H-1,2,3-triazol-4-yl)benzoate]", "pIC50": "4.70 to 5.30"},
      {"compound": "N#Cc1c(NC(=O)c2ccc(C(=O)O)cc2C(N)=O)sc(-c2ccccc2)c1-c1ccccc1", "note": "[Example 11, 3-carbamoyl-4-[(3-cyano-4,5-diphenylthiophen-2-yl)carbamoyl]benzoic acid]", "pIC50": "> 6.30"},
      {"compound": "O=C(O)c1ccc2c(c1)C(=O)N(c1cc(-c3ccccc3)ccc1CO)C2=O", "note": "[Example 11]", "pIC50": "4.70 to 5.30"},
      {"compound": "COC(=O)c1cc(-c2ccccc2)ccc1N1C(=O)c2ccc(C(=O)O)cc2C1=O", "note": "[Example 12, 2-(3-Methoxycarbonylbiphenyl-4-yl)-1,3-dioxo-2,3-dihydro-1H-isoindole-5-carboxylic acid]", "pIC50": "5.30 to 5.70"},
      {"compound": "COc1ccc(-c2c(C)sc(N3C(=O)c4ccc(C(=O)NS(=O)(=O)c5ccccc5)cc4C3=O)c2C#N)cc1", "note": "[Example 13, N-{2-[3-Cyano-4-(4-methoxyphenyl)-5-methylthiophen-2-yl]-1,3-dioxo-2,3-dihydro-1H-isoindole-5-carbonyl}-benzenesulfonamide]", "pIC50": "4.70 to 5.30"},
      {"compound": "COc1ccc(-c2c(C)sc(NC(=O)c3ccc(C(=O)O)cc3C(=O)NCCN(C)C)c2C#N)cc1", "note": "[Example 14, 4-{[3-cyano-4-(4-methoxyphenyl)-5-methylthiophen-2-yl]carbamoyl}-3-{[2-(dimethylamino)ethyl]carbamoyl}benzoic acid]", "pIC50": "> 4.70"},
      {"compound": "COc1ccc(-c2c(C)sc(N3C(=O)c4ccc(C(=O)NS(C)(=O)=O)cc4C3=O)c2C#N)cc1", "note": "[Example 14]", "pIC50": "5.70 to 6.30"},
      {"compound": "CNC(=O)c1cc(CO)ccc1C(=O)Nc1sc(C)c(-c2ccc(OC)cc2)c1C#N", "note": "[Example 15, N1-[3-cyano-4-(4-methoxyphenyl)-5-methylthiophen-2-yl]-4-(hydroxymethyl)-N2-methylbenzene-1,2-dicarboxamide]", "pIC50": "> 4.70"},
      {"compound": "CCCCS(=O)(=O)NC(=O)c1ccc2c(c1)C(=O)N(c1sc(C)c(-c3ccc(OC)cc3)c1C#N)C2=O", "note": "[Example 15]", "pIC50": "4.70 to 5.30"},
      {"compound": "O=C(O)c1cc(C(=O)O)c(C(=O)Nc2cc(-c3ccc(F)c(F)c3)ccc2C(=O)O)cc1O", "note": "[Example 16, 4-({4-carboxy-3′,4′-difluoro-[1,1′-biphenyl]-3-yl}carbamoyl)-6-hydroxybenzene-1,3-dicarboxylic acid]", "pIC50": "> 4.70"},
      {"compound": "COc1ccc(-c2c(C)sc(N3C(=O)c4ccc(C(=O)N[C@@H](CO)C(=O)O)cc4C3=O)c2C#N)cc1", "note": "[Example 16]", "pIC50": "5.30 to 5.70"},
      {"compound": "O=C(O)c1ccc(NC(=O)c2cccc(-c3ccccc3)c2)c(C(=O)O)c1", "note": "[Example 17, 4-{[1,1′-biphenyl]-3-amido}benzene-1,3-dicarboxylic acid]", "pIC50": "5.70 to 6.30"},
      {"compound": "COc1ccc(-c2c(C)sc(N3C(=O)c4ccc(C(=O)N[C@@H](Cc5c[nH]c6ccccc56)C(=O)O)cc4C3=O)c2C#N)cc1", "note": "[Example 17]", "pIC50": "5.70 to 6.30"},
      {"compound": "O=C(Nc1cc(Cl)c(-c2c[nH]nn2)cc1C(=O)O)c1cccc(-c2ccccc2)c1", "note": "[Example 18, 2-([1,1′-biphenyl]-3-carboxamido)-4-chloro-5-(1H-1,2,3-triazol-5-yl)benzoic acid]", "pIC50": "4.70 to 5.30"},
      {"compound": "O=C(O)c1cc(-c2cnn[nH]2)c(Cl)cc1NC(=O)c1cc(-c2ccc(F)c(F)c2)ccc1C(=O)O", "note": "[Example 19, 3-((2-carboxy-5-chloro-4-(1H-1,2,3-triazol-5-yl)phenyl)carbamoyl)-3′,4′-difluoro-[1,1′-biphenyl]-4-carboxylic acid]", "pIC50": "> 6.30"},
      {"compound": "COc1ccc(-c2c(C)sc(N3C(=O)c4ccc(C(=O)N[C@H](C(=O)O)C(C)C)cc4C3=O)c2C#N)cc1", "note": "[Example 19]", "pIC50": "4.70 to 5.30"},
      {"compound": "O=C(O)c1cc(Cl)c(-c2cnn[nH]2)cc1NC(=O)c1cc(-c2ccc(F)c(F)c2)ccc1C(=O)O", "note": "[Example 20, 3-((2-carboxy-4-chloro-5-(1H-1,2,3-triazol-5-yl)phenyl)carbamoyl)-3′,4′-difluoro-[1,1′-biphenyl]-4-carboxylic acid]", "pIC50": "5.30 to 5.70"},
      {"compound": "O=C(O)c1ccc(-c2ccc(F)c(F)c2)cc1NC(=O)c1cc(-c2cnn[nH]2)ccc1C(=O)O", "note": "[Example 21, 3-(2-carboxy-5-(1H-1,2,3-triazol-5-yl)benzamido)-3′,4′-difluoro-[1,1′-biphenyl]-4-carboxylic acid]", "pIC50": "> 6.30"},
      {"compound": "COc1ccc(-c2c(C)sc(N3C(=O)c4ccc(C(=O)N[C@@H](CCC(N)=O)C(=O)O)cc4C3=O)c2C#N)cc1", "note": "[Example 21]", "pIC50": "4.70 to 5.30"},
      {"compound": "O=C(O)c1ccc(-c2ccc(F)c(F)c2)cc1NC(=O)c1ccc(-c2cnn[nH]2)cc1C(=O)O", "note": "[Example 22, 3-[2-carboxy-4-(1H-1,2,3-triazol-5-yl)benzamido]-3′,4′-difluoro-[1,1′-biphenyl]-4-carboxylic acid]", "pIC50": "> 6.30"},
      {"compound": "O=C(NS(=O)(=O)c1ccccc1)c1ccc2c(c1)C(=O)N(c1ccc(-c3ccccc3)cc1C(=O)O)C2=O", "note": "[Example 22]", "pIC50": "5.30 to 5.70"},
      {"compound": "CCCCS(=O)(=O)NC(=O)c1ccc2c(c1)C(=O)N(c1ccc(-c3ccccc3)cc1C(=O)O)C2=O", "note": "[Example 24, 4-[5-(Butane-1-sulfonylaminocarbonyl)-1,3-dioxo-1,3-dihydroisoindol-2-yl]biphenyl-3-carboxylic Acid]", "pIC50": "5.30 to 5.70"},
      {"compound": "CS(=O)(=O)NC(=O)c1ccc2c(c1)C(=O)N(c1cc(-c3ccccc3)ccc1C(=O)O)C2=O", "note": "[Example 25, 3-(5-Methanesulfonylaminocarbonyl-1,3-dioxo-1,3-dihydroisoindol-2-yl)biphenyl-4-carboxylic Acid]", "pIC50": "> 6.30"},
      {"compound": "CN(C)S(=O)(=O)c1cc(-c2cnn[nH]2)c(Cl)cc1C(=O)Nc1cc(-c2ccc(F)c(F)c2)ccc1C(=O)O", "note": "[Example 26, 3-(5-chloro-2-(N,N-dimethylsulfamoyl)-4-(1H-1,2,3-triazol-5-yl)benzamido)-3′,4′-difluoro-[1,1′-biphenyl]-4-carboxylic acid]", "pIC50": "5.30 to 5.70"},
      {"compound": "O=C(O)c1cc(C(=O)O)c(C(=O)Nc2cc(-c3ccc(F)c(F)c3)ccc2O)cc1O", "note": "[Example 27, 4-((3′,4′-difluoro-4-hydroxy-[1,1′-biphenyl]-3-yl)carbamoyl)-6-hydroxyisophthalic acid]", "pIC50": "> 6.30"},
      {"compound": "NC(=O)c1ccc2c(c1)C(=O)N(c1ccc(-c3ccccc3)cc1C(=O)O)C2=O", "note": "[Example 27]", "pIC50": "5.30 to 5.70"}
    ]}
  ]
}
